US20220017863A1, “SIRT2-ABLATED CHIMERIC T CELLS” (H. Lee Moffitt Cancer Center and Research Institute, Inc., priority 2019, published 2022)
Entries after “also recorded” stand apart in the source; their conditions may differ.

Tests used:
SIRT1 = target: T1, SIRT1 (Homo sapiens, UniProt Q96EB6); conditions: at 10-fold higher levels than the SIRT2 IC50; cited from earlier work
T1 sequence (Q96EB6 1-747): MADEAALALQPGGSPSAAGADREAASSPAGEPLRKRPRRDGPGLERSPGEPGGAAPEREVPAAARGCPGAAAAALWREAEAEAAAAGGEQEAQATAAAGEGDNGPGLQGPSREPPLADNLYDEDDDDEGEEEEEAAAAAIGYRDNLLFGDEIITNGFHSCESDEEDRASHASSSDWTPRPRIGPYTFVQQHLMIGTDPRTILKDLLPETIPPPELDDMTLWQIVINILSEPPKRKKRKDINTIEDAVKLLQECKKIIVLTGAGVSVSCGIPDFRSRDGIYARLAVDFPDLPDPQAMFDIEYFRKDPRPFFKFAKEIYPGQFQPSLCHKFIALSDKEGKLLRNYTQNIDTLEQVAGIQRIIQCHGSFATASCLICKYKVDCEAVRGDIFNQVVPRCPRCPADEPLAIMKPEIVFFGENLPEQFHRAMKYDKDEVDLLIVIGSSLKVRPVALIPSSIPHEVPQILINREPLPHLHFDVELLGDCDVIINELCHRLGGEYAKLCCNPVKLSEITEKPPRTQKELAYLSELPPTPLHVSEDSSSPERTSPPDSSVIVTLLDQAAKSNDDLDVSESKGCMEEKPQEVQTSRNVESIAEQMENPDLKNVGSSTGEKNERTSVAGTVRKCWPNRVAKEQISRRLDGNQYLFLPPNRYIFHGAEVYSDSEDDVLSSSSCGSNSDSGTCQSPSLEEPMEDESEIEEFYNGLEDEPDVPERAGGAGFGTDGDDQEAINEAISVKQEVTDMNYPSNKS

human CD3+ T cells = assay: IFN-γ ELISPOT on human CD3+ T cells from healthy donors; type: cell-based; conditions: inhibitor vs vehicle, 48 hr
human TILs = assay: Seahorse extracellular flux analysis of CD3-stimulated human TILs from NSCLC patients; type: cell-based; conditions: anti-CD3 plus AGK2 vs vehicle, 48 hr
Description: Human tumor infiltrating lymphocytes (hTILs) samples isolated from tumor biopsies of patients with nonsmall cell lung cancer (NSCLC) were generously provided by Dr. Antonia lab (Moffitt Cancer Center). All human samples remained totally de-identified and no Institutional Review Board (IRB) approval was needed.
hTILs were maintained in RPMI 1640 Medium, supplemented with 10% human AB serum (Valley Biomedical, Inc.), 1 mM Hepes (Sigma-Aldrich), 1% P/S (Thomas Scientific Inc), 50 μg/ml Gentamicin (ThermoFisher Scientific), 50 μM […] (ThermoFisher Scientific) and 6000 U/ml of recombinant human IL-2 (Peprotech).
Extracellular acidification rates (ECAR) were measured using the Seahorse XF analyzer (Agilent). […]
For GST, ECAR was measured under basal conditions and in response to 10 mM glucose, 1 μM oligomycin and 50 mM 2-DG successively to calculate basal glycolytic rate, glycolytic capacity (in response to oligomycin), and glycolytic reserve (glycolytic capacity−basal rate). For GRA, ECAR was measured under basal conditions and in response to 0.5 μM rotenone+0.5 μM antimycin A and 50 mM 2-DG successively to calculate basal glycolysis and compensatory glycolysis (in response to rotenone+antimycin A). Results were normalized to total protein quantified using Pierce™ BCA Protein Assay Kit (ThermoFisher Scientific). […]

## N#C/C(=C/c1ccc(-c2cc(Cl)ccc2Cl)o1)C(=O)Nc1cccc2ncccc12 [AGK2]
SIRT1
  effect on SIRT1: minimally affects
Human CD3+ T cells
  IFN-γ production (effector function): increases; also recorded: augments
Human TILs; human TILs from 5 NSCLC patients
  OxPhos (OCR): increased
Human TILs; human TILs from NSCLC patients, 5 patient samples
  aerobic glycolysis (ECAR): increases
